Measured values reported in publication PMC9166630, “SAR Probing of KX2-391 Provided Analogues With Juxtaposed Activity Profile Against Major Oncogenic Kinases” (Frontiers in Oncology, 2022).
“And” between values parts separate entries of the source, which are not always exact repeats. Equal values may be shown once.

Key:
[1] = tested on: Fyn; assay: PamChip tyrosine kinase microarray, Fyn; type: biochemical, human; conditions: 4e 0.1 µM, HL60 lysate
Protocol: (§1) The changes in kinase activities induced by treatment with 4e were monitored within the HL60 cell lines using PamGene’s (Hertogenbosch, Netherlands) PamChip® peptide microarray profiler, which quantifies the activities of 144 tyrosine kinases (YK) ([29], [30]) (Figure 7). Results are provided as a log fold change (LFC) heatmap and Mean Kinase Statistic. From the LFC it is apparent that compound 4e, at a concentration of 0.1 µM, induced sizable changes to the activity of several kinases within the cell signaling YK profile (Figure 7A).
(§2) An Upstream Kinase tool was used to generate a putative list of kinases responsible for phosphorylating the phospho-sites on the PamChip (Figure 7B) ([31]). It is an interpretation and is highly dependent on the contents of the underlying phosphorylation databases. A Kinase Score was used for ranking kinases based on their significance and specificity in terms of the set of peptides used for the corresponding kinase. Kinase Statistics indicates the overall change of the peptide set that represents the kinase. Kinase statistics value <0 indicates lower kinase activity in the compound spiked lysate and vice versa ([32], [33]). Table 5 lists the 20 most changed kinases within treated HL60 cell lysates by 0.1 μM 4e, ranked according to their Kinase Score.
(§3) The two multiple-kinase tests (PamChip and Phosphokinase Profiler) provided strong evidence of very minor involvement of Src in the cellular activities of 4e. However, the question must be raised about the effect of the 4e on other SRC family kinase (SFK). To address this point, we must highlight that both R&D phosphokinase profiler and PamChip feature Yes, Fgr, Lyn, Lck and Src while Fyn, Hck, Blk and Frk activities are tested in the PamChip only. The signals of SFKs in the R&D Phosphokinase Profiler were too weak to detect in both untreated (control) and 4e-treated HL60 cells. In PamChip assay, most of SFK’s were not ranked in the top 20 affected kinases (Table 5). In addition, their Specificity Score were very low (Table 6) indicating their marginal importance to the cell killing activities of 4e. Fgr kinase which ranked 7th in the list (Table 5) was the only SFK member that seems to be affected by the compound, albeit with low Specificity Score (1.03).
(§4) The compound 4e was spiked into HL60 cell lysate at different concentrations (0.001, 0.01, 0.1, 1, 10 and 50 μM). In addition, DMSO was also spiked in HL60 lysate at low concentration (2% v/v) as control. Samples were profiled on PamGene’s Tyrosine Kinase (PTK) arrays in technical replicates, covering a total of 196 phosphorylation sites. Frozen HL60 cultured cell pellet was sent to PamGene. […] Protein concentration was measured using standard Bradford assay as per PamGene SOPs. […]

[2] = tested on: HSP27; assay: Human phosphokinase array, HSP27; type: cell-based
Text: (§5) The kinome tree representation (Figure 7C), which was generated by raising the Kinase Score cut-off to >1.2, confirmed that, unlike tirbanibulin and our prototype molecule KX1-136, 4e’s effects were more observable on kinases other than the Src family such as the Eph and TEC families. […] Therefore, we screened compound 4e using the Human Phospho-Kinase Array® kit from R&D systems (Minneapolis, MN, USA). In this system, 35 phosphorylated YK and serine-threonine kinase (STK) enzymes in the untreated (control) and treated (test) HL60 cell lysates were captured on nitrocellulose membrane, pre-spotted with phosphokinase-specific capture antibodies, and then visualized by detection antibody cocktails (Figure 8). The difference in the spot intensity between untreated (control) and treated cells is proportional to change in the amount of the phosphorylated protein induced by 4e.
(§6) The phosphorylation profile of 48 kinases was performed using the Proteome Profiler Human Phospho-Kinase Antibody Array Kit by R&D Systems (Minneapolis, MN, USA) according to the protocol. Briefly, the total cellular protein was extracted using the Lysis buffer and was quantified using Bio-Rad DC Protein Assay kit (Hercules, CA, USA). Nitrocellulose membrane set (A&B), pre-spotted with kinase-specific capture antibodies, were first blocked with Array Buffer-1 at RT for 30 min on a rocking platform shaker. Approximately 600 µg of protein concentrate was diluted in the buffer provided and was added onto the membrane set, and the membranes were incubated overnight at 4°C in an 8-well plate. Subsequently, membranes were washed with Wash Buffer and incubated with appropriate Detection Antibody cocktails for 2 h at RT. Streptavadin-HRP (1:2000) was added onto membranes and incubated for 30 min at RT. Membranes were washed, and Chemiluminescent Detection Reagents 1&2 were applied in equal volumes for detection. The signals were detected on C-DiGit®Blot Scanner (LI-COR, Odyssey Imaging Systems, Lincoln, Nebraska, USA) using Image Studio 5.0 software.

[3] = target: T1, Fgr (Homo sapiens, UniProt P09769); assay: PamChip tyrosine kinase microarray, Fgr; type: biochemical; conditions: 4e 0.1 µM
T1 construct: endogenous in cells; host or cells: HL60 lysate
T1 sequence (P09769 whole entry): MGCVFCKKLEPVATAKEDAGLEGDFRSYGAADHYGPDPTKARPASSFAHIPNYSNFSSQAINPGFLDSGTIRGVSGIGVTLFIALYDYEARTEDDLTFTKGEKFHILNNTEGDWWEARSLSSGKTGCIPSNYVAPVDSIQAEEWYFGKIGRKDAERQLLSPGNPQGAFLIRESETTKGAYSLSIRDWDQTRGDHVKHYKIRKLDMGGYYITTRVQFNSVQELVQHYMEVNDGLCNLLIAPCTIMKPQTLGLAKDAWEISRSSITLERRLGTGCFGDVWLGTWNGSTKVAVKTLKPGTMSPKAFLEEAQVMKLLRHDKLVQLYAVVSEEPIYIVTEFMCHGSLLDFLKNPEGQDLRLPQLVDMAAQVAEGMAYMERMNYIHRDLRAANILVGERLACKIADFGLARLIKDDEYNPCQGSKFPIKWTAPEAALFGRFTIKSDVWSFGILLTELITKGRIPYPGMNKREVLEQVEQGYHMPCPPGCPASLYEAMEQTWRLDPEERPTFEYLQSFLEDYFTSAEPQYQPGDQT
Protocol: as §1, §2
The compound 4e was spiked into HL60 cell lysate at different concentrations (0.001, 0.01, 0.1, 1, 10 and 50 μM). In addition, DMSO was also spiked in HL60 lysate at low concentration (2% v/v) as control. Samples were profiled on PamGene’s Tyrosine Kinase (PTK) arrays in technical replicates, covering a total of 196 phosphorylation sites. Frozen HL60 cultured cell pellet was sent to PamGene. At PamGene, cells were lysed using a lysis buffer and proteases inhibitors cocktail. Protein concentration was measured using standard Bradford assay as per PamGene SOPs. These lysates were further used for generating the PTK activity profiles. For spiking, 4e was received as powder form and dissolved in DMSO at PamGene facility followed by storing at -20°C in small aliquots. PamGene used its in-house bioinformatics toolbox in combination with other methods to generate hypotheses of signaling pathways.

[4] = tested on: HL60 cells; assay: Cell cycle analysis (Hoechst 33342, flow cytometry); type: cell-based, human; conditions: HL60, 5 µM, 48 h
Protocol: The effect of 4e on the distribution of cells in different phases of the cell cycle was determined by flow cytometry using Hoescht 33342 staining in HL60 cells.
HL60 cells (3.5 x 10^5) were seeded in a 6-well plate, were treated with appropriate concentrations of the test compound after attachment, and were incubated at 37°C for 48 h. The treated cells were then collected and washed twice with ice-cold PBS (1X). The washed cells were fixed using 80% ice cold ethanol and stored at -20°C overnight. Fixed cells were washed twice with PBS before staining with 10 µg of Hoechst 33342 (10 µg/mL; Thermo Fisher Scientific, Inc.) and incubated in the dark for 30 min on ice. Cells were washed again with PBS wash and a minimum total of 20,000 events were collected and analyzed using a BD FACSAria III flow cytometer (BD Biosciences, USA). Flowlogic software version 7.0/7.2.1 (Inivai Technologies Pvt Ltd, Victoria, Australia) was used to obtain the percentage distribution of cells in G1, S, and G2/M phases in the singlet-gated population. For validation purpose, we included KX2-391 as a positive reference in this assay.

[5] = tested on: CREB; assay: Human phosphokinase array, CREB; type: cell-based
Text: as §5, §6

[6] = tested on: Lyn; assay: PamChip tyrosine kinase microarray, Lyn; type: biochemical, human; conditions: 4e 0.1 µM, HL60 lysate
Protocol: as §1, §2, §3, §4

[7] = tested on: HL60 cells; assay: Apoptosis detection (Annexin V-FITC/PI); type: cell-based, human; conditions: HL60, 7 µM, 48 h
Protocol: Integral to the cell cycle analysis of 4e, we determined the population of cells undergoing apoptosis, or programmed cell death, by Annexin V-FITC/PI double staining in HL60 cells. Two different concentrations of 4e (3.5 µM and 7 µM) were selected for treatment.
Total apoptosis was detected using Annexin V-FITC Apoptosis Detection kit (Cell Signaling Technology, Danvers, MA, USA) as per the protocol. Briefly, 1.5 x 10^5 of HL60 cells were plated in a 6-well plate with appropriate compound concentrations at 37°C for 48 h. After the incubation completed, cells were washed twice with ice-cold PBS (1X). Subsequently cells were stained with Annexin V-FITC/PI and incubated in the dark on ice for 20 min. After washing with PBS wash, the cells were analyzed by acquiring a minimum total of 5000 events using BD FACSAria III flow cytometer (BD Biosciences, USA).

## O=C(Cc1ccc(NC(=O)c2cccc(Cl)c2)cc1)NCc1ccccc1 [Compound 4e, N-(4-(2-(benzylamino)-2-oxoethyl)phenyl)-3-chlorobenzamide]
[1]
  Mean Final Score: 1.4765
  Mean Kinase Statistic: -0.4963
  Mean Significance Score: 1.1307
  Mean Specificity Score: 0.3458
[2]; HL60, versus control
  decrease of Hsp27 Ser78 and Ser82 phosphorylation: 92.3%
[2]; HL60 cell lysate, treated
  phosphokinase signal after 4e exposure, HSP27: 3.71
[2]; treated vs untreated HL60
  % Change, HSP27: -92.31%
  Change in Signal, HSP27: -44.51
[3]; HL60
  PamGene Ranking: 7
[3]; HL60 lysate
  Mean Final Score: 2.2023
  Mean Kinase Statistic: -0.7971
  Mean Significance Score: 1.1688
  Mean Specificity Score: 1.03 and 1.0335
[4]
  Apoptosis (cell cycle profile): 14.66%
  G2M population: 24.51%
[5]; HL60 cell lysate, treated
  phosphokinase signal after 4e exposure, CREB: 682.43
[5]; treated vs untreated HL60
  Change in Signal, CREB: 42.08
[5]; treated vs untreated HL60, Ser133
  % Change, CREB: 6.57% and ~ 6%
[6]
  Mean Final Score: 1.9530
  Mean Kinase Statistic: -0.5775
  Mean Significance Score: 1.2715
  Mean Specificity Score: 0.6815
[7]
  percentage of apoptotic cells: increased significantly
